Measurements as given in PubChem BioAssay AID720611 (Broad Institute, 2013).

Test system: SNB-19 viability, CellTiter-Glo ATP luminescence, 8-48 h
Test: cytotoxicity in SNB-19 cells – cell-based, CellTiter-Glo ATP luminescence, 8-48 h, dry powder, mechanism study for HRAS target identification, late-stage follow-up (AID 720611)

For `COc1ccc(N(C(=O)CCl)C(C(=O)NCCc2ccccc2)c2cccs2)cc1Cl` (centres undefined), the AC50 (measured here: 8 h treatment) was 978 nM, the AC50 (measured here: 24 h treatment) was 1300 nM and the AC50 (measured here: 48 h treatment) was 1250 nM.
Work on `CC(C)(C)OC(=O)NCCOCCOCCOc1ccc(N(C(=O)CCl)C(C(=O)NCCc2ccccc2)c2cccs2)cc1Cl` (centres undefined) yielded an AC50 (measured here: 8 h treatment) of 1410 nM, an AC50 (measured here: 24 h treatment) of 2500 nM and an AC50 (measured here: 48 h treatment) of 1450 nM.
`C#CCCCC(=O)NCCOCCOCCOc1ccc(N(C(=O)CCl)C(C(=O)NCCc2ccccc2)c2cccs2)cc1Cl` (centres undefined) gave an AC50 (measured here: 8 h treatment) of 5750 nM, an AC50 (measured here: 24 h treatment) of 4270 nM and an AC50 (measured here: 48 h treatment) of 3600 nM.
